Changes are numbered by the printed parent chain. Read-outs that look alike come from different tables or passages of the source. Blank lines part the entries; values can stand above or below the compound they belong to.
Columns and labels:
[1] = molecular target: T1, human lysosomal α-Gal A (Homo sapiens, UniProt P06280); assay: In vitro inhibition of α-Gal A (recombinant, expressed in Sf-9 insect cells); type: biochemical; conditions: for IC50 / Ki: p-nitrophenyl-α-D-galactopyranoside as substrate; for IC50: pH 4.5; for reduction of inhibitory potential / affinity for α-Gal A relative to DGJ: compared with DGJ; for Ki: read-out: Ki for α-Gal A, from the slope of Lineweaver-Burk plots
T1 construct: made in house; host or cells: Sf-9 insect cells, recombinant baculovirus
T1 sequence (P06280 32-429): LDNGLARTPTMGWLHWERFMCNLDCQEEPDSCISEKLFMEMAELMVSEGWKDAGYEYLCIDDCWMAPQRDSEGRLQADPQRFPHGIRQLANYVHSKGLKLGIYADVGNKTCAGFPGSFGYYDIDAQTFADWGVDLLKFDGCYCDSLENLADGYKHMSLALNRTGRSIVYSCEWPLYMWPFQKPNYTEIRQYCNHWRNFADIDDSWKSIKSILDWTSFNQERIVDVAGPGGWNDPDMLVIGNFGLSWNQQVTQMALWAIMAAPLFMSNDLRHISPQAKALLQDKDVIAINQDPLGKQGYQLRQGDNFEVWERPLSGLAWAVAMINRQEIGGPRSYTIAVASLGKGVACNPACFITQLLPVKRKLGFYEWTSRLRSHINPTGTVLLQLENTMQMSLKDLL

[2] = molecular target: T2, mutant α-Gal A (R301Q) (Homo sapiens, UniProt P06280, R301Q); assay: Intracellular enhancement of α-Gal A activity in Fabry lymphoblasts; type: cell-based; design: endogenous in cells; host or cells: Epstein-Barr virus-transformed lymphoblasts from a Fabry patient (R301Q); conditions: for intracellular α-Gal A activity in Fabry lymphoblasts (summary): concentration ranges of 10-1000 μM; for increase of α-Gal A enzyme activity in R301Q lymphoblasts: inhibitor at 100 μM; for increase of α-Gal A enzyme activity in R301Q lymphoblasts / enhancement of α-Gal A activity in R301Q lymphoblasts / α-Gal A activity in R301Q lymphoblasts with increasing concentration of calystegine compound: 4 days; for enhancement of α-Gal A activity in R301Q lymphoblasts: inhibitor at 1000 μM; for α-Gal A activity in R301Q lymphoblasts with increasing concentration of calystegine compound: range 100-1000 μM, FIG. 6
T2 sequence (P06280 32-429 R301Q): T1 sequence (P06280 32-429) with R270Q
Description: FIG. 4B depicts results in which each inhibitor was added to the culture medium of R301Q lymphoblasts at a concentration of 100 μM. Cells were subsequently incubated for 4 days. After being washed twice with phosphate-buffered saline, the intracellular enzyme activity was determined with 4-MU-α-Gal as the substrate.
R301Q lymphoblasts were cultured with DGJ (4) ([…]), α-allo-HNJ (9) (▪), α-galacto-HNJ (10) (▴), or β-1-C-butyl-DGJ (16) (♦) at 1-1000 μM for 4 days before being collected for enzyme assay.
In FIG. 6B, R301Q lymphoblasts were cultured with calystegine B2 (18) and the results are shown therein. In FIG. 6C, R301Q lymphoblasts were cultured with N-methyl calystegine A3 (19) and the results are shown therein. In FIG. 6D R301Q lymphoblasts were cultured with N-methyl calystegine B2 (20) at 100-1000 μM for 4 days before being collected for enzyme assay and the results are shown therein.
The Epstein-Barr virus-transformed lymphoblast lines from a normal adult and a Fabry patient with R301Q mutation in α-Gal A (38) were cultured in RPMI-1640 medium (Nissui Pharmaceutical Co., Tokyo, Japan) supplemented with 10% fetal calf serum (FCS) at 37° C. under 5% CO2. Human fibroblasts from Gaucher and GM1-gangliosidosis patients were cultured in McCoy 5A medium supplemented with 10% FCS at 37° C. under 5% CO2.
Cells were cultured in the presence or absence of inhibitor for 4 days. After being washed twice with phosphate-buffered saline (PBS), the cells were harvested and homogenized in 200 μl of H2O, and 10 μl of the supernatant obtained by centrifugation at 10,000 g was incubated at 37° C. with 50 μl of the substrate solution composed by 6 mM 4-methylumbelliferyl α-D-galactoside (4-MU-α-Gal) and 90 mM N-acetylgalactosamine in 0.1 M citrate buffer (pH 4.5) for enzyme assay. One unit of intracellular enzyme activity was defined as one nmol of 4-methylumbelliferone released per hour at 37° C.

[3] = molecular target: human β-glucocerebrosidase (Homo sapiens, UniProt P04062); assay: In vitro inhibition of human β-glucocerebrosidase; type: biochemical; conditions: for IC50: 0.1M citrate buffer (pH 5.2), 4-MU-β-Glu as substrate
Sequence of human β-glucocerebrosidase (P04062 40-536): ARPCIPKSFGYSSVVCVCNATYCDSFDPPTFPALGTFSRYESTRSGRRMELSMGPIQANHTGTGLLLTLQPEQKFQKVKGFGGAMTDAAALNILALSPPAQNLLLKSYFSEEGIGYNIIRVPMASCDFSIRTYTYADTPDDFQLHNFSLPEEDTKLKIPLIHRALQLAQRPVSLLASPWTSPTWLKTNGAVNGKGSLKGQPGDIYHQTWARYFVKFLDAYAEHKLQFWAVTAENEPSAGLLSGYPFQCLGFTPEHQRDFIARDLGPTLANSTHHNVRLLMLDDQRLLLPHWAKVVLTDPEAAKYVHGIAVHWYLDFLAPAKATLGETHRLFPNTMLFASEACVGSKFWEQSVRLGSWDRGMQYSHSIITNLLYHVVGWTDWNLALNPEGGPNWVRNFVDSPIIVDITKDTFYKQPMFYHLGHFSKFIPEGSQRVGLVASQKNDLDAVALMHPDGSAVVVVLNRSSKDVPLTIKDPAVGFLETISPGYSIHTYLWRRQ

[4] = molecular target: T3, glucocerebrosidase (β-Glu), N370S/N370S (Homo sapiens, UniProt P04062, N409S); assay: Intracellular enhancement of β-Glu activity in Gaucher fibroblasts (N370S/N370S); type: cell-based; conditions: for intracellular β-Glu activity in Gaucher fibroblasts (summary): concentration ranges of 0.05-100 μM
T3 construct: endogenous in cells; host or cells: human Gaucher patient fibroblasts, genotype N370S/N370S
T3 sequence (P04062 40-536 N409S): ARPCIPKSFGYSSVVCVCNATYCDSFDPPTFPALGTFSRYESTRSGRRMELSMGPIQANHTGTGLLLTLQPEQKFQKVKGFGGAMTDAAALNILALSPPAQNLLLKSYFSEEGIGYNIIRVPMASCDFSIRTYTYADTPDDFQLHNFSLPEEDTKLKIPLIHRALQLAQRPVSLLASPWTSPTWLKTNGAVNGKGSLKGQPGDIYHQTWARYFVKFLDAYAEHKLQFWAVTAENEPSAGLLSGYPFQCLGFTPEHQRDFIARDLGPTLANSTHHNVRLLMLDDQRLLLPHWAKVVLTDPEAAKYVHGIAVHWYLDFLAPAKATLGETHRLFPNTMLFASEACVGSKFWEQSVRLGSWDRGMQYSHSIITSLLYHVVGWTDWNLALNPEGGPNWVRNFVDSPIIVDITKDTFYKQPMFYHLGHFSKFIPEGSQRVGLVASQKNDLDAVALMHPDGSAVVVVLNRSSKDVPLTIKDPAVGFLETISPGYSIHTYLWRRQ

[5] = IC30 and (Ki)*: IC50 values (inhibitor concentration giving 50% inhibition) for α-Gal A
[6] = read-out: IC30 and (Ki)*: IC50 values (inhibitor concentration giving 50% inhibition) for α-Gal A
[7] = N370S/N370S, compound at 10 μM, 5 days
[8] = N370S/N370S, compound at 100 μM, 5 days

Compound: OCC1NCC(O)C(O)C1O (stereo not drawn) [compound 2, 1-Deoxymannojirimycin]
inhibition of α-Gal A (in words) [1]: no appreciable inhibition even at 1000 μM

Compound: OCC1NCC(O)C(O)C1O (stereo not drawn) [compound 3, 1-Deoxy-3-epi-nojirimycin]
inhibition of α-Gal A (in words) [1]: no appreciable inhibition even at 1000 μM

Compound: OC[C@H]1NC[C@H](O)[C@H](O)[C@H]1O [compound 5, 1-deoxy-3,4-diepi-nojirimycin]
inhibition of α-Gal A (in words) [1]: no appreciable inhibition even at 1000 μM

Compound: OCC1NCCC(O)C1O (stereo not drawn) [compound 6, 1,2-dideoxy-galactonojirimycin]
IC50 [1, 5]: 250 µM
reduction of inhibitory potential / affinity for α-Gal A relative to DGJ [1]: over 6000 fold

Compound: OCC1NC(CO)C(O)C(O)C1O (stereo not drawn) [compound 7, α-Homonojirimycin]
inhibition of α-Gal A (in words) [1]: not an inhibitor
IC50 [1, 5]: > 1000 µM

Compound: OCC1NC(CO)C(O)C(O)C1O (stereo not drawn) [compound 8, α-homomannojirimycin]
inhibition of α-Gal A (in words) [1]: weak inhibitor
IC50 [1, 5]: 464 µM

Compound: CN1C2CCC1(O)C(O)C(O)C2 (stereo not drawn) [compound 19, N-methyl calystegine A3]
intracellular α-Gal A activity in Fabry lymphoblasts (summary) [2]: effectively increase
α-Gal A activity in R301Q lymphoblasts with increasing concentration of calystegine compound [2]: elevated with increasing concentration

Compound: CN1C2CCC1(O)C(O)C(O)C2O (stereo not drawn) [compound 20, N-methyl calystegine B2]
intracellular α-Gal A activity in Fabry lymphoblasts (summary) [2]: effectively increase
α-Gal A activity in R301Q lymphoblasts with increasing concentration of calystegine compound [2]: elevated with increasing concentration
IC50 [3]: 320 µM

Compound: O[C@@H]1[C@@H](O)C[C@]2(O)CC[C@H]1N2 [compound 22, calystegine A5]
IC50 [3]: 31 µM

Compound: O[C@@H]1C[C@]2(O)N[C@H]1C[C@@H](O)[C@@H]2O [compound 23, calystegine B1]
IC50 [3]: 2.5 µM
intracellular β-Glu activity in Gaucher fibroblasts (summary) [4]: effectively enhance

Compound: O[C@@H]1[C@@H](O)[C@H]2CC[C@](O)(N2)[C@@H]1O [compound 24, calystegine B3]
IC50 [3]: 76 µM

Compound: O[C@@H]1[C@H](O)[C@H]2CC[C@](O)(N2)[C@H]1O [compound 25, calystegine B4]
IC50 [3]: 82 µM

Compound: OC1CC2(O)NC1C(O)C(O)C2O (stereo not drawn) [compound 26, calystegine C1]
IC50 [3]: 2.5 µM
intracellular β-Glu activity in Gaucher fibroblasts (summary) [4]: effectively enhance

Compound: CCCCN1C[C@H](CO)[C@@H](O)[C@H](O)C1 [compound 34, N-Butyl-isofagomine]
IC50 [3]: 44 µM
elevation of residual β-Glu activity in Gaucher cells [4, 7]: 73%
elevation of residual β-Glu activity in Gaucher cells [4, 8]: 56%
intracellular β-Glu activity in Gaucher fibroblasts (summary) [4]: effectively enhance

Further lines, results first:

intracellular α-Gal A activity in Fabry lymphoblasts (summary) [2]: effectively increase
increase of α-Gal A enzyme activity in R301Q lymphoblasts [2]: 2.4 fold
enhancement of α-Gal A activity in R301Q lymphoblasts [2]: 3.9 fold
inhibition mode toward α-Gal A (Lineweaver-Burk plots) [1]: competitive inhibitors
Ki [1]: 2.6 µM
IC50 [1, 6]: 4.3 µM
Compound: OC[C@H]1N[C@H](CO)[C@@H](O)C(O)[C@H]1O (stereo partly drawn) [compound 9, α-homoallonojirimycin]

intracellular α-Gal A activity in Fabry lymphoblasts (summary) [2]: effectively increase
increase of α-Gal A enzyme activity in R301Q lymphoblasts [2]: 5.2 fold
enhancement of α-Gal A activity in R301Q lymphoblasts [2]: 12.5 fold
inhibition mode toward α-Gal A (Lineweaver-Burk plots) [1]: competitive inhibitors
reduction of inhibitory potential / affinity for α-Gal A relative to DGJ [1]: approximately 4 fold
Ki [1]: 0.17 µM
IC50 [1, 6]: 0.21 µM
Compound: OC[C@H]1N[C@H](CO)[C@H](O)C(O)[C@H]1O (stereo partly drawn) [compound 10, α-Homogalactonojirimycin]

IC50 [1, 5]: 96 µM
Compound: CN1CC(O)C(O)C(O)C1CO (stereo not drawn) [compound 11, N-Methyl-1-deoxygalactonojirimycin]

IC50 [1, 5]: 306 µM
Compound: CCN1CC(O)C(O)C(O)C1CO (stereo not drawn) [compound 12, N-Ethyl-1-deoxygalactonojirimycin]

IC50 [1, 5]: 301 µM
Compound: CCCN1CC(O)C(O)C(O)C1CO (stereo not drawn) [compound 13, N-Propyl-1-deoxygalactonojirimycin]

IC50 [1, 5]: 520 µM
Compound: OCCN1CC(O)C(O)C(O)C1CO (stereo not drawn) [compound 15, N-Hydroxyethyl-1-deoxygalactonojirimycin]

IC50 [3]: 160 µM
Compound: OC[C@H]1NC[C@@H](O)[C@@H]1O [compound 28, 1,4-dideoxy-1,4-imino-D-arabinitol]

IC50 [3]: 100 µM
elevation of residual β-Glu activity in Gaucher cells [4, 7]: 106%
elevation of residual β-Glu activity in Gaucher cells [4, 8]: 47%
intracellular β-Glu activity in Gaucher fibroblasts (summary) [4]: effectively enhance
Compound: OCC1CN(CCCC2CCCCC2)CC(O)C1O (stereo not drawn) [compound 35, N-(3-cyclohexylpropyl)-isofagomine]

IC50 [3]: 69 µM
elevation of residual β-Glu activity in Gaucher cells [4, 7]: 50%
elevation of residual β-Glu activity in Gaucher cells [4, 8]: 54%
intracellular β-Glu activity in Gaucher fibroblasts (summary) [4]: effectively enhance
Compound: OCC1CN(CCCc2ccccc2)CC(O)C1O (stereo not drawn) [compound 36, N-(3-phenylpropyl)-isofagomine]

IC50 [3]: 1.5 µM
increase in potency against β-Glu compared with the 4 carbon chain compound ([3]; compared with compound 32 (so in the source)): 30 fold
elevation of residual β-Glu activity in Gaucher cells [4, 7]: 43%
decrease of residual β-Glu activity in Gaucher cells [4, 8]: 53%
intracellular β-Glu activity in Gaucher fibroblasts (summary) [4]: effectively enhance
Compound: CC(C)=CCC/C(C)=C\CC/C(C)=C/CN1CC(O)C(O)C(CO)C1 (stereo not drawn) [compound 37, N-[(2E,6Z,10Z)-3,7,11-trimethyldodecatrienyl]-isofagomine]

IC50 [3]: 28 µM
Compound: DNJ bisulfite [compound 32]
